The text below walks through data of PubChem BioAssay AID624405 (Broad Institute, 2012).

The test system of this assay is C2C12 myotubes + simvastatin, ATP luminescence, 48 h. As to the kind of experiment: rescue of simvastatin-induced ATP loss – cell-based, C2C12 myotubes, ATP luminescence, cherry pick, dose response (AID 624405).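 Also: myotubes are challenged with simvastatin at 10 µM to lower ATP.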

Results filed as inconclusive are left out.

For the compound `C/C=C/Cn1c(SCc2ccccc2)nc2c1c(=O)[nH]c(=O)n2C`, the AC40 was 0.556 µM.
As for `COc1cc(NC(=O)CN(C)S(=O)(=O)c2ccc3c(c2)CC(C)N3C(C)=O)cc(OC)c1OC` (centres undefined), the figure is 15.9 µM.
Turning to `C[C@@H]1CN([C@H](C)CO)C(=O)Cc2cc(NS(=O)(=O)c3ccc(Cl)cc3)ccc2O[C@H]1CN(C)CC1CCCCC1`, the AC40 was 9.96 µM.
As for `CCOC(=O)Cc1csc(NC(=O)CC(C)(C)C)n1`, the figure is 2.56 µM; as for `C[C@H]1CN([C@@H](C)CO)C(=O)c2cc(NC(=O)Cc3cn(C)c4ccccc34)ccc2O[C@H]1CN(C)Cc1ccc(C(=O)Nc2ccccc2N)cc1`, 3.17 µM.
As for `COc1cccc(OC)c1C(=O)N1CCN(S(=O)(=O)c2ccc(C)cc2)CC1`, the figure is 0.233 µM.
As for `CC(C)Nc1ncnc2c1cnn2Cc1ccc(Cl)cc1`, the figure is 0.544 µM; as for `Cc1noc(C)c1NC(=O)Nc1cccc2c1O[C@H](CN(C)Cc1ccc(-c3ccccc3)cc1)[C@@H](C)CN([C@H](C)CO)C2=O`, 12.6 µM.
With `Cc1ccc(C2CC2c2n[nH]c(=S)n2-c2ccc(C)cc2)cc1` (centres undefined), the AC40 was 6.33 µM.
The value for `CCN(CC)c1ncnc2c1cnn2Cc1ccc(C)cc1` was 12 µM.
For `CC(=O)c1cc(F)c(N2CCCC2)cc1C`, the AC40 was 17.4 µM.
The value for `COc1cc(CNc2ncnc3c2ncn3[C@H]2CN(Cc3cccc4ccccc34)C[C@@H](CO)O2)cc(OC)c1OC` was 1.36 µM; that for `CC1(Cc2cccc(F)c2)C(=O)Nc2ccc(S(=O)(=O)NC3CCCCC3)cc21` (centres undefined) was 1.66 µM.
As for `Cc1[nH]nc2c1C1(C(=O)N(Cc3ccc(Cl)cc3)c3ccccc31)C(C#N)=C(N)O2` (centres undefined), the figure is 4.72 µM; as for `CCN1C(=O)NC2=C(C(=O)c3ccccc32)C1c1ccccc1F` (centres undefined), 5.31 µM; as for `N#Cc1nc(-c2ccco2)oc1N1CCCC1`, 0.199 µM.
For the compound `CC(C)(C)c1ccc(OCC(=O)N/N=C/c2cc(Br)ccc2OC(=O)c2ccco2)cc1`, the AC40 is 2.32 µM.
As for `C[C@H](CO)N1C[C@H](C)[C@@H](CN(C)Cc2ccc(Oc3ccccc3)cc2)Oc2c(NC(=O)Nc3cccc4ccccc34)cccc2C1=O`, the figure is 7.98 µM; as for `C[C@H](CO)N1C[C@H](C)[C@H](CN(C)Cc2ccc(C(=O)Nc3ccccc3N)cc2)Oc2ccc(NC(=O)Nc3cccc4ccccc34)cc2CC1=O`, 10.5 µM; as for `CC(=O)c1c(C(C)=O)c(C)n(Cc2ccc(Cl)cc2)c1C`, 16.9 µM.
As for `Cc1ccc(S(=O)(=O)Nc2ccc3c(c2)CC(=O)N([C@H](C)CO)C[C@H](C)[C@@H](CN(C)Cc2ccc(Cl)c(Cl)c2)O3)cc1`, the AC40 is 8.12 µM.
As for `O=C(NCc1ccco1)c1cc2sccc2n1Cc1ccccc1`, the figure is 0.839 µM.
The value for `C[C@@H]1CN([C@H](C)CO)C(=O)Cc2cc(NC(=O)C3CCCCC3)ccc2O[C@H]1CN(C)Cc1ccc(Cl)c(Cl)c1` was 5.24 µM; that for `Cc1cc(C(=O)COC(=O)C2=NNC(=O)CC2)c(C)n1-c1ccccc1` was 11.7 µM; that for `Cc1ccc(C)c(NC(=O)C2CC3c4ccccc4C2c2ccccc23)c1` (centres undefined) was 3.1 µM.
As for `COc1cc2c(cc1OC)C(=O)CCS2`, the figure is 1.88 µM; as for `COc1cccc(-c2ccc([C@@H]3[C@@H](C#N)N(C(=O)Cc4ccccc4)[C@H]3CO)cc2)c1`, 11.5 µM; as for `C[C@H]1CN([C@@H](C)CO)C(=O)c2cc(NC(=O)Nc3cccc4ccccc34)ccc2O[C@H]1CN(C)Cc1ccc(C(=O)Nc2ccccc2N)cc1`, 5.45 µM.
Turning to `Cc1ccc(S(=O)(=O)Nc2ccc3c(c2)CC(=O)N([C@@H](C)CO)C[C@H](C)[C@@H](CN(C)Cc2ccc(Cl)c(Cl)c2)O3)cc1`, the AC40 is 11.9 µM.
As for `C[C@H]1CN([C@@H](C)CO)S(=O)(=O)c2ccc(-c3cccc(F)c3)cc2O[C@@H]1CN(C)S(=O)(=O)c1ccc(F)cc1`, the figure is 15.5 µM; as for `O=C(CN1CCC(c2nc3ccccc3s2)CC1)NCc1ccccc1`, 19.3 µM.
The value for `Cc1cc2c3c(c1)C1(SCC(=O)N1c1ccc(F)cc1)C(=O)N3C(C)(C)CC2C` (centres undefined) was 4.82 µM.
Consider `N#C[C@@H]1[C@@H](c2ccc(-c3cccc(F)c3)cc2)[C@H](CO)N1C(=O)NC1CCCC1`, for which the AC40 was 0.38 µM.
The value for `O=c1[nH]cnc2scc(-c3ccsc3)c12` was 13.2 µM.
`C[C@H]1CN([C@@H](C)CO)C(=O)Cc2cc(NS(=O)(=O)c3ccc(F)cc3)ccc2O[C@@H]1CN(C)Cc1ccc(Cl)c(Cl)c1`: the AC40 was 15.8 µM.
The value for `COc1ccc(S(=O)(=O)Nc2cccc3c2O[C@H](CN(C)C(=O)Nc2ccc(F)cc2)[C@H](C)CN([C@@H](C)CO)C3=O)cc1` was 6.89 µM.
The value for `Fc1ccc(-c2csc(Nc3ccccn3)n2)cc1` was 7.31 µM; that for `C[C@H]1CN([C@@H](C)CO)C(=O)Cc2cc(NC(=O)CCCCCC(=O)Nc3ccccc3N)ccc2O[C@H]1CN(C)Cc1ccc(-c2ccccc2)cc1` was 7.68 µM.
As for `O=C(C[C@H]1CC[C@@H]2[C@H](COC[C@H](O)CN2CCC(F)(F)F)O1)NCc1ccc(Oc2ccccc2)cc1`, the figure is 7.6 µM.
`C[C@@H]1CN([C@H](C)CO)C(=O)Cc2cc(NS(C)(=O)=O)ccc2O[C@@H]1CN(C)Cc1ccc(-c2ccccc2)cc1`: the AC40 is 18.4 µM.
As for `C[C@@H]1CN([C@@H](C)CO)C(=O)Cc2cc(NC(=O)CCCCCC(=O)Nc3ccccc3N)ccc2O[C@H]1CN(C)Cc1ccccc1`, the AC40 was 12.2 µM.
With `CC(C)(C)c1ccc(Cn2nnc3c(=O)[nH]c(C4CCN(C(=O)Cc5cccs5)CC4)nc32)cc1`, the AC40 is 3.99 µM.
The value for `COc1ccc(S(=O)(=O)Nc2ccc3c(c2)CC(=O)N([C@H](C)CO)C[C@H](C)[C@@H](CN(C)Cc2ccc(Cl)c(Cl)c2)O3)cc1` was 15.9 µM; that for `CC(C)C(=O)N(c1ccc2oc(=O)sc2c1)S(=O)(=O)c1ccccc1` was 3.85 µM.
As for `C[C@@H]1CN([C@H](C)CO)C(=O)Cc2cc(NC(=O)CCCCCC(=O)Nc3ccccc3N)ccc2O[C@@H]1CN(C)Cc1ccccc1`, the figure is 14.4 µM; as for `O=C(CN1CCN(c2nc(-c3ccccc3)cs2)CC1)NCc1ccc2c(c1)OCO2`, 10 µM; as for `CC(=O)c1ccc(-c2cc([C@H]3[C@H]4C=CC[C@@H](C)[C@@H]4C(=O)N3Cc3ccccc3)ccc2F)cc1`, 8.76 µM.
With `O=C1N2CCCc3cccc(c32)C12Nc1ccccc1S2` (centres undefined), the AC40 is 14.5 µM.
As for `C[C@@H]1CN([C@@H](C)CO)C(=O)Cc2cc(N(C)C)ccc2O[C@@H]1CN(C)Cc1ccc(Cl)c(Cl)c1`, the figure is 9.93 µM; as for `Cc1c(NC(=O)CSc2ccccn2)c(=O)n(-c2ccccc2)n1C`, 10.7 µM.
Regarding `Cc1cccc(C)c1Nc1nnc(SCc2cc([N+](=O)[O-])cc3c2OCOC3)s1`, the AC40 was 3.85 µM.
As for `Cc1cccc(-n2c(O)c(C=NC3CCS(=O)(=O)C3)c3ccccc3c2=O)c1` (centres undefined), the figure is 17.6 µM; as for `C[C@H]1CN([C@@H](C)CO)C(=O)Cc2cc(NC(=O)CCCCCC(=O)Nc3ccccc3N)ccc2O[C@H]1CN(C)Cc1ccc(Cl)c(Cl)c1`, 12.6 µM; as for `COc1ccc(C)cc1C(=O)C1CC(C(=O)O)C(C)(C)C1C` (centres undefined), 10.6 µM.
The value for `O=C(c1cccc(Cl)c1)c1nn(-c2ccccc2)c(=O)cc1C(F)(F)F` was 4.99 µM; that for `COc1ccc(-c2csc(C(C)(O)c3ccccc3)n2)cc1OC` (centres undefined) was 13.4 µM; that for `C[C@@H]1CN([C@H](C)CO)C(=O)Cc2cc(NS(=O)(=O)c3cn(C)cn3)ccc2O[C@@H]1CN(C)Cc1ccc(Cl)c(Cl)c1` was 2.69 µM.
As for `COc1ccc(N(Cc2cc3ccccc3[nH]c2=O)S(=O)(=O)c2ccccc2)cc1`, the figure is 5.81 µM; as for `CCSc1nnc(NC(=O)c2c(-c3ccccc3Cl)noc2C)s1`, 13.9 µM.
For the compound `CCn1c(-c2ccc(-c3ccccc3)cc2)c[nH]c1=S`, the AC40 is 3.72 µM.
The value for `Nc1nonc1-c1nc2ccccc2n1Cc1ccc(F)cc1Cl` was 0.892 µM; that for `Cc1cccc(S(=O)(=O)N2CCCCN3[C@H](CO)[C@@H](c4ccc(C#C[C@H](C)O)cc4)[C@@H]3C2)c1` was 17.3 µM; that for `Cc1ccc(O)c(CNc2ccccn2)c1` was 0.443 µM.
As for `C[C@H]1C[C@@H](C)C(=O)[C@@H]([C@H](O)CC2CC(=O)NC(=O)C2)C1`, the figure is < 0.16 µM; as for `C[C@H](CO)N1C[C@H](C)[C@@H](CN(C)Cc2ccc(Cl)c(Cl)c2)Oc2ccc(NC(=O)C3CCCCC3)cc2CC1=O`, 17.4 µM.
The value for `CCOc1[nH]n(-c2ccccc2)c(=O)c1C=Nc1ccc(Cl)cc1` was 11.9 µM; that for `C[C@@H]1CN([C@@H](C)CO)C(=O)c2cccc(NC(=O)Nc3ccccc3)c2O[C@@H]1CN(C)S(=O)(=O)c1ccc(F)cc1` was 15.1 µM.
Regarding `C[C@H](CO)N1C[C@H](C)[C@@H](CN(C)Cc2ccc(C(F)(F)F)cc2)Oc2ccc(NS(=O)(=O)c3ccc(F)cc3)cc2CC1=O`, the AC40 is 18.2 µM.
The value for `COC(=O)[C@@]12CCCCN1[C@H](c1ccc(-c3cccc(Cl)c3)c(OC)c1)[C@@H]1C(=O)N(C)C(=O)[C@@H]12` was 2.72 µM.
As for `COc1ccc(N2CCN(C(=O)c3ccc4c(c3)CCN4S(=O)(=O)c3ccccc3)CC2)cc1`, the figure is 16.2 µM; as for `COc1cc(/C=C(/C(=O)c2cccs2)c2nc3ccccc3[nH]2)cc(OC)c1O`, 1.38 µM; as for `Cc1ccc(O)c(NC(=O)c2cc(-c3cccs3)on2)c1`, 14.3 µM.
The value for `COc1ccc(S(=O)(=O)N(C)C[C@@H]2Oc3ccc(NS(=O)(=O)c4ccc(Cl)cc4)cc3CC(=O)N([C@@H](C)CO)C[C@H]2C)cc1` was 11.8 µM; that for `C[C@H]1CN([C@@H](C)CO)S(=O)(=O)c2ccc(C#CC3CC3)cc2O[C@H]1CN(C)C(=O)Nc1cc(F)ccc1F` was 3.66 µM.
For `COc1ccccc1-c1noc(-c2cccs2)n1`, the AC40 is 0.575 µM.
As for `C[C@H](CO)N1C[C@H](C)[C@@H](CN(C)Cc2ccc(Cl)c(Cl)c2)Oc2ccc(NC(=O)Cc3cn(C)c4ccccc34)cc2CC1=O`, the figure is 7.35 µM; as for `Cc1ccc(S(=O)(=O)Nc2ccc3c(c2)CC(=O)N([C@H](C)CO)C[C@H](C)[C@@H](CN(C)Cc2ccc4c(c2)OCO4)O3)cc1`, 14.1 µM; as for `Cc1cc(C)c(C)c(S(=O)(=O)NCC(=O)N2CCCC2)c1C`, 13.2 µM.
As for `COc1ccc(CC2NCC(O)C2OC(C)=O)cc1` (centres undefined), the figure is 0.275 µM.
